Our source for the mutagenic call values is PubChem BioAssay AID1259407 (Chemical Carcinogenesis Research Information System (CCRIS), 2018).

Calls of active or inactive are those of the source. The rule behind the calls is not given here.

For the series, the system named is CCRIS mutagenicity, Ames/micronucleus/aberration tests. Nature of the series: CCRIS mutagenicity studies.
Setting [1] is: Test System: AMES SALMONELLA TYPHIMURIUM, Strain/Indicator: TA97, Metabolic Activation: NONE, Method: STANDARD PLATE.
Where [2] appears, read: Test System: AMES SALMONELLA TYPHIMURIUM, Strain/Indicator: TA98, Metabolic Activation: NONE, Method: STANDARD PLATE.
Where [3] appears, read: Test System: AMES SALMONELLA TYPHIMURIUM, Strain/Indicator: TA100, Metabolic Activation: NONE, Method: STANDARD PLATE.
Setting [4] is: Test System: AMES SALMONELLA TYPHIMURIUM, Strain/Indicator: TA98, Metabolic Activation: NONE, Method: PREINCUBATION
Where [5] appears, read: Test System: AMES SALMONELLA TYPHIMURIUM, Strain/Indicator: TA100, Metabolic Activation: NONE, Method: PREINCUBATION

Take `CCOC(=O)C1=C(C)NC(C)=C(C(=O)OCC2COC3(CCCC3)O2)C1c1cccc(Cl)c1` (stereo not drawn): the mutagenic call under setting [1] was “inactive; negative”; the mutagenic call (Test System: AMES SALMONELLA TYPHIMURIUM, Strain/Indicator: TA97, Metabolic Activation: RAT, LIVER, S-9, Method: STANDARD PLATE) was “inactive; negative”; the mutagenic call under setting [2] is “inactive; negative”; the mutagenic call (Test System: AMES SALMONELLA TYPHIMURIUM, Strain/Indicator: TA98, Metabolic Activation: RAT, LIVER, S-9, Method: STANDARD PLATE) is “inactive; negative”; the mutagenic call under setting [3] was “inactive; negative”; the mutagenic call (Test System: AMES SALMONELLA TYPHIMURIUM, Strain/Indicator: TA100, Metabolic Activation: RAT, LIVER, S-9, Method: STANDARD PLATE) was “inactive; negative”. The mutagenic call (Test System: AMES SALMONELLA TYPHIMURIUM, Strain/Indicator: TA102, Metabolic Activation: NONE, Method: STANDARD PLATE) is “inactive; negative”; the mutagenic call (Test System: AMES SALMONELLA TYPHIMURIUM, Strain/Indicator: TA102, Metabolic Activation: RAT, LIVER, S-9, Method: STANDARD PLATE) was “inactive; negative”; the mutagenic call (Test System: CHINESE HAMSTER V-79, Strain/Indicator: V-79 (HPRT)/6-THIOGUANINE, Metabolic Activation: NONE) is “inactive; negative”.
With `Nc1ccc(Sc2ccccc2)cc1`, the mutagenic call is, setting by setting: under setting [2], “inactive; negative”; (Test System: AMES SALMONELLA TYPHIMURIUM, Strain/Indicator: TA98, Metabolic Activation: RAT, LIVER, S-9, AROCLOR 1254, Method: STANDARD PLATE) “active; positive”.
Consider `Nc1ccc2c3c(cccc13)C(=O)c1ccccc1-2`, for which, where the note is “End Point: In vivo micronucleus, Test System: lacZ mutant frequency in liver, lung, and bone marrow cells, Species: Mouse, Strain/Sex: Big Blue (BALB/c x DBA2)/Male, Route: Oral”, the mutagenic call was “active; positive in liver and bone marrow”.
Regarding `CC(C)(N=NC(C)(C)C(=N)N)C(=N)N`, the mutagenic call is “active; positive” under setting [4]; “active; positive” (Test System: AMES SALMONELLA TYPHIMURIUM, Strain/Indicator: TA98, Metabolic Activation: RAT, LIVER, S-9, PHENOBARBITAL AND 5,6-BENZOFLAVONE, Method: PREINCUBATION); “active; positive” under setting [5]; “active; positive” (Test System: AMES SALMONELLA TYPHIMURIUM, Strain/Indicator: TA100, Metabolic Activation: RAT, LIVER, S-9, PHENOBARBITAL AND 5,6-BENZOFLAVONE, Method: PREINCUBATION).
Take `Cc1nc(-c2ccc([N+](=O)[O-])o2)cs1`: the mutagenic call (Test System: AMES SALMONELLA TYPHIMURIUM, Strain/Indicator: TA100, Metabolic Activation: RAT, LIVER, S-9, KC500 OR PHENOBARBITAL, Method: LIQUID SUSPENSION) was “active; positive”.
`CCNc1nc(N)nc(Cl)n1`: the mutagenic call is, setting by setting: under setting [1], “inactive; negative”; under setting [2], “inactive; negative”; under setting [3], “inactive; negative”.
In the case of `C=CCOC(=O)c1ccccc1N`, the mutagenic call was “inactive; negative” (Test System: AMES SALMONELLA TYPHIMURIUM, Strain/Indicator: TA98, Metabolic Activation: HAMSTER, LIVER, S-9, AROCLOR 1254 (10%), Method: PREINCUBATION); “inactive; negative” under setting [4]; “inactive; negative” (Test System: AMES SALMONELLA TYPHIMURIUM, Strain/Indicator: TA98, Metabolic Activation: RAT, LIVER, S-9, AROCLOR 1254 (10%), Method: PREINCUBATION); “inactive; negative” (Test System: AMES SALMONELLA TYPHIMURIUM, Strain/Indicator: TA100, Metabolic Activation: HAMSTER, LIVER, S-9, AROCLOR 1254 (10%), Method: PREINCUBATION); “inactive; negative” under setting [5]; “inactive; negative” (Test System: AMES SALMONELLA TYPHIMURIUM, Strain/Indicator: TA100, Metabolic Activation: RAT, LIVER, S-9, AROCLOR 1254 (10%), Method: PREINCUBATION). In addition, the mutagenic call reads like this: (Test System: AMES SALMONELLA TYPHIMURIUM, Strain/Indicator: TA1535, Metabolic Activation: HAMSTER, LIVER, S-9, AROCLOR 1254 (10%), Method: PREINCUBATION) “inactive; negative”; (Test System: AMES SALMONELLA TYPHIMURIUM, Strain/Indicator: TA1535, Metabolic Activation: NONE, Method: PREINCUBATION) “inactive; negative”; (Test System: AMES SALMONELLA TYPHIMURIUM, Strain/Indicator: TA1535, Metabolic Activation: RAT, LIVER, S-9, AROCLOR 1254 (10%), Method: PREINCUBATION) “inactive; negative”; (Test System: AMES SALMONELLA TYPHIMURIUM, Strain/Indicator: TA1537, Metabolic Activation: HAMSTER, LIVER, S-9, AROCLOR 1254 (10%), Method: PREINCUBATION) “inactive; negative”; (Test System: AMES SALMONELLA TYPHIMURIUM, Strain/Indicator: TA1537, Metabolic Activation: NONE, Method: PREINCUBATION) “inactive; negative”; (Test System: AMES SALMONELLA TYPHIMURIUM, Strain/Indicator: TA1537, Metabolic Activation: RAT, LIVER, S-9, AROCLOR 1254 (10%), Method: PREINCUBATION) “inactive; negative”.
For `C[C@]12C=CC(=O)C=C1CC[C@@H]1[C@@H]2[C@@H](O)C[C@@]2(C)[C@H]1CC[C@]2(O)C(=O)CO`, the mutagenic call by setting is: under setting [4], “inactive; negative”; (Test System: AMES SALMONELLA TYPHIMURIUM, Strain/Indicator: TA98, Metabolic Activation: S-9, Method: PREINCUBATION) “inactive; negative”; under setting [5], “inactive; negative”; (Test System: AMES SALMONELLA TYPHIMURIUM, Strain/Indicator: TA100, Metabolic Activation: S-9, Method: PREINCUBATION) “inactive; negative”; (Test System: MOUSE LYMPHOMA, Strain/Indicator: L5178Y (TK+/TK-), Metabolic Activation: NONE, Method: SUSPENSION/PLATE) “inactive; negative”; (Test System: MOUSE LYMPHOMA, Strain/Indicator: L5178Y (TK+/TK-), Metabolic Activation: RAT, LIVER, S-9, AROCLOR 1254, Method: SUSPENSION/PLATE) “active; positive”.
Regarding `Nc1ccc(-c2ccc(N)c(Br)c2)cc1Br`, the mutagenic call is, setting by setting: (Test System: AMES SALMONELLA TYPHIMURIUM, Strain/Indicator: TA98(1,8-DNP6), Metabolic Activation: NONE, Method: STANDARD PLATE) “active; positive”; (Test System: AMES SALMONELLA TYPHIMURIUM, Strain/Indicator: TA98(1,8-DNP6), Metabolic Activation: S-9, Method: STANDARD PLATE) “active; positive”; (Test System: AMES SALMONELLA TYPHIMURIUM, Strain/Indicator: TA98/1,8-DNP6, Metabolic Activation: HAMSTER, LIVER, S-9, Method: PREINCUBATION) “active; positive”; (Test System: AMES SALMONELLA TYPHIMURIUM, Strain/Indicator: TA98/1,8-DNP6, Metabolic Activation: NONE, Method: PREINCUBATION) “active; positive”; (Test System: AMES SALMONELLA TYPHIMURIUM, Strain/Indicator: TA98, Metabolic Activation: HAMSTER, LIVER, S-9, Method: PREINCUBATION) “active; positive”; under setting [4], “active; positive”. For the same compound, the mutagenic call was “active; positive” under setting [2]; “active; positive” (Test System: AMES SALMONELLA TYPHIMURIUM, Strain/Indicator: TA98, Metabolic Activation: S-9, Method: STANDARD PLATE); “inactive; negative” under setting [3]; “active; positive” (Test System: AMES SALMONELLA TYPHIMURIUM, Strain/Indicator: TA100, Metabolic Activation: S-9, Method: STANDARD PLATE).
